Data from patent US20170216297A1, “EFFICIENT INHIBITION OF HSP27” (TECHNISCHE UNIVERSITAET DRESDEN, priority 2014, published 2017).
Read-outs that look alike come from different tables or passages of the source.

Tests used:
[1] = tested on: RPMI-8226 cells; test: Development of resistance to bortezomib in RPMI-8226 cells; type: cell-based
Protocol: The cell line RPMI-8226 (DMSZ 402) is a “multiple myeloma” cell line and was chosen because bortezomib is employed as a standard therapy for multiple myeloma. RPMI-8226 cells respond to bortezomib, express HSP27 and develop resistance to Velcade. RPMI-8226 cells were seeded at a cell count of 100,000 cells/ml in each case and regularly passaged. […] In contrast, for RPMI 8226 cells that were treated with 30 μmol/L BVDU, a final cell count of 160,000 cells/ml was detected whereas the final cell count for the culture without the addition of an HSP27 inhibitor amounted to 350,000 cells/ml. As a control, RPMI 8226 cells were treated with the respective test substances alone, FIG. 4b.

[2] = tested on: U937 cells; test: Development of resistance to bortezomib in U937 cells; type: cell-based; settings: Examples 17/18: bortezomib 0.1-0.5 ng/ml, plus 0.75 μmol/L inhibitor
Protocol: For this purpose, U937 cells (histiocytic lymphoma) were cultured in DMEM culture medium (+10% FCS) at 37° C., 5% CO2 in an H2O-saturated atmosphere. 100,000 cells/ml were seeded and incubated with the cytostatic agent bortezomib (0.1 ng/ml) and the respective test substance (dosage in the current experiment: 1 μM/L acepromazine). The reference substance, BVDU, was employed at a concentration of 30 μM/L. The cells were in each case passaged before the cell count reached 1,000,000 cells/ml. At each passage, 100,000 cells/ml were again seeded and the dose of the cytostatic agent bortezomib was increased stepwise (0.1 ng/mL or 0.05 ng/mL). The concentration of the test substances remained constant. As a result of the stepwise increase in the dosage of the cytostatic agent, resistance developed in the U937 cells. The development of resistance is prevented or inhibited in the case of a positively tested HSP27 inhibitor. The experiments from Example 6 were repeated in the same way, wherein U937 cells (histiocytic lymphoma) are cultured in DMEM culture medium (+10% FCS) at 37° C., 5% CO2 in an H2O— saturated atmosphere. 100,000 cells/ml were seeded and incubated with an initial concentration of 0.2 ng/ml of the cytostatic agent bortezomib and both without an inhibitor and with acepromazine as an HSP27 inhibitor at a concentration of 1 μM/L. The reference substance, BVDU, was employed at a concentration of 30 μM/L. The cells were passaged in each case before the cell count reached 1,000,000 cells/ml. At each passage, 100,000 cells/ml were again seeded and the dose of the cytostatic agent bortezomib was increased stepwise by 0.1 ng/mL. The concentration of the test substance and the reference substance remained constant. As a result of the stepwise increase in the dosage of the cytostatic agent, resistance developed in the U937 cells. The development of resistance is prevented or inhibited in the case of a positively tested HSP27 inhibitor. The cell line U-937 is a histiocytic lymphoma (DSMZ ACC 5). This cell line also responds to treatment with bortezomib, expresses HSP27 and develops resistance to bortezomib. Bortezomib is not the standard therapy for this lymphoma, but is being discussed as a possible therapeutic agent. U-937 cells were seeded with a cell count of 100,000 cells/ml in each case and regularly passaged. […] At the end of the experiment, 70,000 living cells per ml medium could be detected. For the treatment with 30 μmol/L BVDU, a final cell count of 250,000 cells/ml was detected whereas the final cell count in the culture without the addition of an HSP27 inhibitor amounted to 450,000 cells/ml. As a control, U-937 cells were treated with the respective test substances alone, FIG. 10b.

[3] = target: T1, HSP27 (Homo sapiens, UniProt P04792); test: Bio-layer interferometry (ForteBio Octet Red 384, biotinylated HSP27 on SSA sensors); type: binding
T1 sequence (P04792 whole entry): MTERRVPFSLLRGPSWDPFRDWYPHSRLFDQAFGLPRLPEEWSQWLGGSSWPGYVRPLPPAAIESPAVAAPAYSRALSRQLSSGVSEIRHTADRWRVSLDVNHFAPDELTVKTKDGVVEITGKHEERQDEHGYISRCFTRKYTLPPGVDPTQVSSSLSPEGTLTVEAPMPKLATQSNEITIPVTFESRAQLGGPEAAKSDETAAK
Source text: Bio-layer interferometry is a technique for detecting biomolecular interactions. It is an analytical technique that measures the optical interference of white light which is reflected by two surfaces: in each case, one surface consists of a layer of the immobilized target protein on the tip of the biosensor and one is an internal reference surface. The binding of ligands to the target protein alters the interference pattern and can be measured in real time.
For the measurements, an instrument of the ForteBio Octet Red 384 brand was used. The target protein HSP27 was biotinylated and bound to the appropriate sensors (SSA). […] The purine derivatives of general formula (I) or (II) pre-identified by means of in silico screening are employed for these measurements in a concentration range (KD) of between 333 μmol/L and 10 nmol/L.
For measurements by bio-layer interferometry, biotinylated HSP27 protein was first bound to Super-Streptavidin sensors (SSA, Fortebio). The loaded sensors were then incubated (“quenched”) with biocytin. As reference, unloaded SSA sensors were incubated with biocytin. In the case of a specific binding to HSP27 of the analyte to be measured, the loaded HSP27 sensor generates a stronger signal (response) than the concurrent reference sensor. After the “baseline” has been established by incubation with the reaction buffer (PBST 0.1% Tween 20 plus 3% DMSO), first the association and then the dissociation of the respective analyte is measured in real time. The analytes were measured in increasing concentrations in each case: 1.23-3.7-11.11-33.33-100-300 μM/l.

[4] = target: T1, HSP27; test: Capillary electrophoresis of the CS protein precipitates (precipitated citrate synthase as measure of HSP27 inhibition); type: biochemical; settings: for times higher activity than BVDU for the inhibition of the HSP27 protein: 120 minutes
Protocol: (§1) Since the heat-denatured protein aggregates of the citrate synthase from Example 1 are not water-soluble, these can be separated completely from the supernatant by means of centrifugation at room temperature at 16,000×g, 10 min. By using capillary electrophoresis, the compositions of the separated precipitates can be shown and quantified. The relative quantity of protein of precipitated citrate synthase serves as a measure of the efficacy of the test substances.
(§2) In each case, 481 nmol/L HSP27 and 1.44 μmol/L citrate synthase in 40 mmol/L HEPES buffer, pH 7.4, were employed. The relative quantity of protein of the precipitated citrate synthase in each case was normalized using a defined quantity of BSA as internal standard. The relative quantity of protein that precipitated when using 750 μmol/L BVDU was set at 1. The other test substances (2 representatives of phenothiazine derivatives of general formula (V), 2 representatives of purine derivatives of formula (I) or (II)) were each employed at a concentration of 10 μmol/L.
as §1, with “Example 2” for “Example 1”
as §2, with “nM” for “nmol/L”, “thymine” for “purine”, “were” for “were each”, “μmol/L in each case.” for “μmol/L.”
Otherwise, the experiments were performed as described above: […]

[5] = cited from earlier work
[6] = target: T1, HSP27; test: Spectrophotometric protein aggregation assay (citrate synthase heat denaturation, HSP27 chaperone function); type: biochemical; settings: 43° C., 500 nm
Protocol: FIG. 1: a spectrophotometric protein aggregation assay at 43° C., a wavelength of 500 nm and a concentrations of the proteins: 1.44 μmol/L citrate synthase (CS), 481 nmol/L HSP27 (HSP) in a 40 mmol/L HEPES buffer (pH 7.4) during treatment with 14 or 28 μmol/L 2-(3-trichlorovinylphenylamino)-1,9-dihydropurin-6-one (CS+HSP+test substance no. 2), with 750 μmol/L BVDU (CS+HSP+BVDU) and without (CS+HSP; reference);
A known client protein (=substrate on which HSP27 acts as a chaperone) of HSP27 is citrate synthase. Citrate synthase is denatured when the temperature increases to 43° C. This heat denaturation is prevented or delayed by the presence of HSP27 [Jakob U, 1993]. By adding the novel active ingredients, their efficacy can thus be measured through the inhibition of the HSP27 chaperone function.
To determine the activity (i.e. the effect on the aggregation behaviour of the citrate synthase (CS) after thermal incubation) of 2-(3-trichlorovinylphenylamino)-1,9-dihydropurin-6-one in comparison to BVDU, four different batches containing 1.44 μmol/L CS, 481 nmol/L HSP27 (HSP) in a 40 mmol/L HEPES buffer (pH 7.4) were prepared and BVDU (750 μmol/L) or various concentrations of 2-(3-trichlorovinylphenylamino)-1,9-dihydropurin-6-one (14 μmol/L; 28 μmol/L) were added. The samples were then incubated at 43° C. and the aggregation behaviour of the CS was monitored in a spectrometer (PerkinElmer LS55, PerkinElmer Inc.) at a wavelength of 500 nm.
It can be seen from FIG. 1 that the protein citrate synthase (graph CS alone) is denatured by increasing the temperature to 43° C. and forms aggregates. The aggregation is measured in the spectrometer at 500 nm (light scattering by protein aggregates). The presence of HSP27 (HSP) counteracts the aggregation (cf. graph, CS+HSP). Since the addition of the test substances (BVDU and 2-(3-trichlorovinylphenylamino)-1,9-dihydropurin-6-one) inhibits the chaperone function of HSP27, the activity of the respective test substance can be determined by measuring the aggregation behaviour of the CS.

[7] = bortezomib 0.1-0.3 ng/ml, plus 1 μM inhibitor
[8] = bio-layer interferometry, read-out: KD
[9] = 10 μmol/L, 43° C. for 120 minutes, 750 μmol/L BVDU set at 1
[10] = analytes 1.23-300 μM/l, PBST 0.1% Tween 20 plus 3% DMSO, read-out: Dissociation constant KD
[11] = bortezomib 0.075-0.275 ng/ml, plus 1 μmol/L inhibitor

In the case of CCCCc1ccc(Nc2nc3c(ncn3COCCO)c(=O)[nH]2)cc1 [2-(4-butylphenylamino)-9-(2-hydroxyethoxymethyl)-1,9-dihydropurin-6-one], the “development of resistance to bortezomib” value [1, 7] is reported as “significantly inhibited”, the “development of resistance to bortezomib” value [2] is reported as “significantly inhibited” and the Kd [3, 8] is reported as 15 µM. For the same molecule, the “Efficacy compared with BVDU” value ([4]; 10 μmol/L vs 750 μmol/L BVDU, 43° C. for 120 minutes) was 69.0 x, the “Rel. quantity of protein prec. CS” value [4, 9] was 0.92 and the “times higher activity than BVDU for the inhibition of the HSP27 protein” value ([4]; 10 μmol/L) was 69 times.

With O=c1nc(Nc2cccc(CO)c2)[nH]c2nc[nH]c12 [2-(3-Hydroxymethylphenylamino)-3,7-dihydropurin-6-one] the Kd [3, 10] was 710 µM.

For O=c1[nH]c(=O)n([C@H]2C[C@H](O)[C@@H](CO)O2)cc1/C=C/Br [BVDU, (E)-5-(2-bromovinyl)-2′-deoxyuridine, reference compound], the tolerability in patients ([5]; increased administered dose of 760 mg/day) is given as “proved disadvantageous for low-weight patients”, the “safety and efficacy in patients” value ([5]; oral, administered dose of 500 mg/day) is given as “works safely and efficiently” and the “Inhibition of HSP27 chaperone function (CS aggregation)” value ([6]; 750 μmol/L) is given as “partially cancels the chaperone function of HSP27”. The “Rel. quantity of protein prec. CS” value ([4]; 750 μmol/L, 43° C. for 70 minutes, set at 1) was 1 and the “Rel. quantity of protein prec. CS” value ([4]; 750 μmol/L, 43° C. for 120 minutes, set at 1) was 1.

For Cc1cn(CC=CCNC(=O)Cc2ccc(-c3ccccc3)cc2)c(=O)[nH]c1=O [2-biphenyl-4-yl-N-[4-(5-methyl-2,4-dioxo-3,4-dihydro-2H-pyrimidin-1-yl)-but-2-enyl]-acetamide], the “development of resistance to bortezomib” value [1, 11] was “significantly inhibited”, the Kd [3, 10] was 424 µM and the “Rel. quantity of protein prec. CS” value [4, 9] was 0.81. The “times higher activity than BVDU for the inhibition of the HSP27 protein” value ([4]; 10 μmol/L) was 61 times.

With Cc1cn(CC=CCNC(=O)C2c3ccccc3Oc3ccccc32)c(=O)[nH]c1=O [9H-xanthene-9-carboxylic acid [4-(5-methyl-2,4-dioxo-3,4-dihydro-2H-pyrimidin-1-yl)-but-2-enyl]amide] the “development of resistance to bortezomib” value [1, 11] was “significantly inhibited”, the Kd [3, 10] was 267 µM and the “Rel. quantity of protein prec. CS” value [4, 9] was 0.65. The “times higher activity than BVDU for the inhibition of the HSP27 protein” value ([4]; 10 μmol/L) was 49 times.

With CN(C)CCCN1c2ccccc2Sc2ccc(Cl)cc21 [Chlorpromazine, reference compound] the “development of resistance to bortezomib” value ([1]; bortezomib 0.2-0.4 ng/ml, plus 0.5 μmol/L inhibitor) was “significantly inhibited” and the Kd [3, 8] was 770 µM.

With O=c1[nH]c(Nc2cccc(C(Cl)=C(Cl)Cl)c2)nc2[nH]cnc12 [2-(3-trichlorovinylphenylamino)-1,9-dihydropurin-6-one] the “development of resistance to bortezomib” value [1, 7] was “significantly inhibited”, the “Inhibition of HSP27 chaperone function (CS aggregation), effect versus 750 μmol/L BVDU” value ([6]; 14 μmol/L) was “comparable effect” and the “Inhibition of HSP27 chaperone function (CS aggregation), effect versus 750 μmol/L BVDU” value ([6]; 28 μmol/L) was “significantly more pronounced effect”. The “Rel. quantity of protein prec. CS” value [4, 9] was 0.71 and the “times higher activity than BVDU for the inhibition of the HSP27 protein” value ([4]; 10 μmol/L) was 53 times.

Molecule O=c1[nH]c(=O)n([C@H]2C[C@H](O)[C@@H](CO)O2)cc1-c1ccccc1 [5-Phenyl-2′-deoxyuridine] has a Kd [3, 10] of 60 µM.
